From patent US20160212997A1, “AGRICULTURAL CHEMICALS” (REDAG CROP PROTECTION LTD, priority 2013, published 2016)
Read-outs that look alike come from different tables or passages of the source.

Key:
Format in all cases: in vivo
[1] = system: aphids, Myzus persicae; assay: Potter tower spray on aphids, knockdown and mortality; conditions: Aphids; for pest or weed control at 0.00625 % strength / pest or weed control at 0.0125 % strength / pest or weed control at 0.025 % strength / pest or weed control at 0.05 % strength / pest or weed control at 0.1 % strength: Myzus persicae, read-out: Average of % corrected affected; for pest or weed control at 0.00625 % strength: 0.00625 % w/v; for pest or weed control at 0.0125 % strength: 0.0125 % w/v; for pest or weed control at 0.025 % strength: 0.025 % w/v; for pest or weed control at 0.05 % strength: 0.05 % w/v; for pest or weed control at 0.1 % strength: 0.1 % w/v
Outline: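 Ten aphids (mixed sex and age) per Petri dish on a leaf disc were sprayed by Potter tower with compounds at five concentrations in DMSO. Knockdown and mortality were scored at 24 and 48 hours, five replicates per treatment, alongside carrier-only and untreated controls.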

[2] = system: red spider mites, Tetranychus urticae; assay: Potter tower spray on red spider mites, knockdown and mortality; conditions: for percentage control: Spider mites
Excerpt: The compounds were screened for insecticidal efficacy against aphids, Myzus persicae, Cabbage moth, Mamestra brassicae, diamond black moths, Plutella xylostella, red spider mites, Tetranychus urticae, whitefly, Trialeurodes vaporariorum, in terms of knockdown and mortality.
Myzus persicae, Cabbage moth, Mamestra brassicae, diamond back moths, Plutella xylostella, red spider mites, Tetranychus urticae, whitefly, Trialeurodes vaporariorum, were obtained from specified laboratory cultures. Mixed sex and age aphids and mites, moth larvae and whitefly scale infested leaves were used in the experiments. Environmental conditions were closely monitored and recorded and were within the optimal range of the target species.
The compounds were screened at a range of five concentrations, diluted in DMSO. Some of the compounds were screened against aphids, whitefly and red spider mites and other compounds were screened against cabbage moth, and diamond black moths. A carrier only and an untreated control will also be conducted. Treatments were applied directly onto the insects within Petri dishes, using a potter tower.
Twenty mites and ten aphids, scales and moth larvae were placed within a Petri dish, lined with a suitable leaf disc on a damp cotton wool pad. Scales were already on leaves. The Petri dishes were then sprayed using a potter tower. The number of knocked down and anthropods were assessed at 24 and 48 hours post treatment. Five replicates were be performed for each treatment, for each species.

[3] = system: caterpillars, a mixture of Mamestra brassicae and Lacanobia oleracea; assay: Potter tower spray on caterpillars, knockdown and mortality; conditions: Caterpillars, read-out: Average of % corrected affected; for pest or weed control at 0.00625 % strength: 0.00625 % w/v; for pest or weed control at 0.0125 % strength: 0.0125 % w/v; for pest or weed control at 0.025 % strength: 0.025 % w/v; for pest or weed control at 0.05 % strength: 0.05 % w/v; for pest or weed control at 0.1 % strength: 0.1 % w/v
Outline: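 Mixed Mamestra brassicae and Lacanobia oleracea larvae (ten per dish, on leaf disc over damp cotton wool) sprayed directly with a Potter tower at five concentrations in DMSO containing 1% v/v Tween 20, alongside carrier-only and untreated controls. Knockdown and mortality scored at 24 and 48 h post treatment; five replicates per treatment.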

[4] = 24 h, 24 hours post application
[5] = 48 h, 48 hours post application

Row | Compound | percentage control ([1]; 25 g/ha, 24 h) | percentage control ([1]; 25 g/ha, 48 h) | percentage control ([1]; 50 g/ha, 24 h) | percentage control ([1]; 50 g/ha, 48 h) | percentage control ([1]; 100 g/ha, 24 h) | percentage control ([1]; 100 g/ha, 48 h) | percentage control ([1]; 200 g/ha, 24 h) | percentage control ([1]; 200 g/ha, 48 h) | pest or weed control at 0.1 % strength [1, 4] [%] | pest or weed control at 0.1 % strength [1, 5] [%] | percentage control ([2]; 25 g/ha, 24 h) | percentage control ([2]; 25 g/ha, 48 h) | percentage control ([2]; 50 g/ha, 24 h) | percentage control ([2]; 50 g/ha, 48 h) | percentage control ([2]; 100 g/ha, 24 h) | percentage control ([2]; 100 g/ha, 48 h) | percentage control ([2]; 200 g/ha, 24 h) | percentage control ([2]; 200 g/ha, 48 h) | pest or weed control at 0.1 % strength [3, 4] [%] | pest or weed control at 0.00625 % strength [3, 5] [%] | further results
1 | CCOC(=O)CN(Cc1ccc(Cl)nc1)C1=CC(=O)OC1 [Compound 3, Ethyl 2-[(6-chloro-3-pyridyl)methyl-(5-oxo-2H-furan-3-yl)amino]acetate] | E (A percentage control of from 1 to 19 is indicated by the letter E) | D (A percentage control of from 20 to 39 is indicated by the letter D) | 0% | C (A percentage control of from 40 to 59 is indicated by the letter C) | E (A percentage control of from 1 to 19 is indicated by the letter E) | B (A percentage control of from 60 to 79 is indicated by the letter B) | E (A percentage control of from 1 to 19 is indicated by the letter E) | C (A percentage control of from 40 to 59 is indicated by the letter C) | 1 to 19 | 20 to 39 | B (A percentage control of from 60 to 79 is indicated by the letter B) | C (A percentage control of from 40 to 59 is indicated by the letter C) | D (A percentage control of from 20 to 39 is indicated by the letter D) | D (A percentage control of from 20 to 39 is indicated by the letter D) | C (A percentage control of from 40 to 59 is indicated by the letter C) | C (A percentage control of from 40 to 59 is indicated by the letter C) | D (A percentage control of from 20 to 39 is indicated by the letter D) | D (A percentage control of from 20 to 39 is indicated by the letter D) | 1 to 19 | 1 to 19 | percentage control ([1]; 400 g/ha, 24 h): E (A percentage control of from 1 to 19 is indicated by the letter E); percentage control ([1]; 400 g/ha, 48 h): B (A percentage control of from 60 to 79 is indicated by the letter B); pest or weed control at 0.00625 % strength [1, 4]: 1 to 19%; pest or weed control at 0.0125 % strength [1, 4]: 1 to 19%; pest or weed control at 0.025 % strength [1, 4]: 1 to 19%; pest or weed control at 0.05 % strength [1, 4]: 1 to 19%; pest or weed control at 0.00625 % strength [1, 5]: 1 to 19%; pest or weed control at 0.0125 % strength [1, 5]: 1 to 19%; pest or weed control at 0.025 % strength [1, 5]: 20 to 39%; pest or weed control at 0.05 % strength [1, 5]: 20 to 39%; percentage control ([2]; 400 g/ha, 24 h): D (A percentage control of from 20 to 39 is indicated by the letter D); percentage control ([2]; 400 g/ha, 48 h): D (A percentage control of from 20 to 39 is indicated by the letter D); pest or weed control at 0.00625 % strength [3, 4]: 1 to 19%; pest or weed control at 0.0125 % strength [3, 4]: 1 to 19%; pest or weed control at 0.025 % strength [3, 4]: 1 to 19%; pest or weed control at 0.05 % strength [3, 4]: 1 to 19%; pest or weed control at 0.0125 % strength [3, 5]: 1 to 19%; pest or weed control at 0.025 % strength [3, 5]: 1 to 19%; pest or weed control at 0.05 % strength [3, 5]: 1 to 19%; pest or weed control at 0.1 % strength [3, 5]: 20 to 39%
2 | CC(=O)N=S(C)(=O)C(C)c1ccc(C(F)(F)F)nc1 (stereo not drawn) [Compound 12, N-[Methyl-oxo-[1-[6-(trifluoromethyl)-3-pyridyl]ethyl]-λ^6-sulfanylidene]acetamide] | E (A percentage control of from 1 to 19 is indicated by the letter E) | D (A percentage control of from 20 to 39 is indicated by the letter D) | E (A percentage control of from 1 to 19 is indicated by the letter E) | C (A percentage control of from 40 to 59 is indicated by the letter C) | E (A percentage control of from 1 to 19 is indicated by the letter E) | D (A percentage control of from 20 to 39 is indicated by the letter D) | E (A percentage control of from 1 to 19 is indicated by the letter E) | D (A percentage control of from 20 to 39 is indicated by the letter D) | 20 to 39 | 40 to 59 | D (A percentage control of from 20 to 39 is indicated by the letter D) | D (A percentage control of from 20 to 39 is indicated by the letter D) | C (A percentage control of from 40 to 59 is indicated by the letter C) | C (A percentage control of from 40 to 59 is indicated by the letter C) | B (A percentage control of from 60 to 79 is indicated by the letter B) | B (A percentage control of from 60 to 79 is indicated by the letter B) | B (A percentage control of from 60 to 79 is indicated by the letter B) | A (A percentage control of from 80 to 100 is indicated by the letter A) | 1 to 19 | 1 to 19 | percentage control ([1]; 12.5 g/ha, 24 h): E (A percentage control of from 1 to 19 is indicated by the letter E); percentage control ([1]; 12.5 g/ha, 48 h): D (A percentage control of from 20 to 39 is indicated by the letter D); percentage control ([2]; 12.5 g/ha, 24 h): D (A percentage control of from 20 to 39 is indicated by the letter D); percentage control ([2]; 12.5 g/ha, 48 h): D (A percentage control of from 20 to 39 is indicated by the letter D); activity against spider mites compared with the reference compound ([2]; versus flupyradifurone or sulfoxaflor respectively, tables 1 and 3): more active than the reference compound; pest or weed control at 0.0125 % strength [3, 5]: 1 to 19%; pest or weed control at 0.025 % strength [3, 5]: 1 to 19%; pest or weed control at 0.05 % strength [3, 5]: 1 to 19%; pest or weed control at 0.1 % strength [3, 5]: 1 to 19%
